According to article PMC3984256, “A PCNA-Derived Cell Permeable Peptide Selectively Inhibits Neuroblastoma Cell Growth” (PLoS ONE, 2014):
Where a SMILES comes first, the peptide text is derived from it. [ ]: non-standard residue; d: D form.

What was measured:
[1] = system: intracellular LIGI or FEN1 level; experiment: Western blot of intracellular LIGI or FEN1 level (data not shown); type: cell-based
[2] = system: SK-N-BE(2)c cells, DNA synthesis; experiment: BrdU incorporation assay; type: cell-based, human; conditions: peptide 7.5 h then 10 µM BrdU 30 min, vs R9-srbPep, triplicates
Experimental: SK-N-BE(2)c cells were treated with the peptides for 7.5 h and then incubated in 10 ìmol/L BrdU for an additional 30 min in the continuous presence of the peptides. Cells were detached with trypsin and fixed in Cytofix/Cytoperm buffer according to the manufacturer's instructions (BD Bioscience, San Jose, CA). Fixed cells were treated with DNase to expose incorporated BrdU and stained with FITC-conjugated anti-BrdU antibody (BD Bioscience) for 1 h at room temperature. Samples were analyzed by flow cytometry to quantify the amount of BrdU incorporation. Percentages of FITC-positive cells were determined by analysis with the FlowJo software. Statistical analysis was conducted using a two-tailed t-test.

[3] = system: SV40 T-antigen-dependent DNA replication, nuclear extracts from SK-N-BE(2)c cells; experiment: SV40 T-antigen-dependent DNA replication assay in vitro; type: biochemical; conditions: nuclear extracts incubated with peptide 20 min; 32P dCTP incorporation, normalized to PBS, triplicates
Experimental: The assay was performed essentially as described, except that nuclear extracts from SK-N-BE(2)c cells were used in the assay.
Figure 3 Inhibition of DNA replication and induction of S-phase arrest and apoptosis by R9-caPep. a) SK-N-BE(2)c cells were pulsed in 10 µM of BrdU for 30 min after being pre-treated with R9-caPep or R9-srbPep for 7.5 h. The relative abundances of BrdU-positive cells in triplicates were averaged and graphed plus/minus standard deviations. b) Nuclear extracts from SK-N-BE(2)c cells were incubated with the indicated concentrations of R9-caPep (grey bars) or R9-srbPep (black bars) for 20 min. SV40 T-antigen was then added to the nuclear extracts along with premixed reaction buffer containing ^32P dCTP. […] The polymerized radioactivity was measured by a scintillation counter. The T-antigen-dependent incorporation of ^32P dCTP was calculated by subtracting T-antigen-independent radioactivity from the total radioactivity and was normalized to the T-antigen-dependent radioactivity in PBS-treated samples. Triplicates of normalized T-antigen-dependent radioactivity for each treatment condition were averaged and graphed plus/minus standard deviations. c) SK-N-BE(2)c and non-malignant 7SM0032 cells were fixed and stained with propidium iodide (PI) after being treated with the indicated concentrations of R9-caPeptide for 48 h. […] Cells were fixed and analyzed by a TUNEL assay. […]

CC[C@H](C)[C@H](NC(=O)CNC(=O)[C@H](CC(C)C)NC(=O)[C@H](CS)NC(=O)[C@H](CS)NC(=O)[C@@H](CCCNC(=N)N)NC(=O)[C@@H](CCCNC(=N)N)NC(=O)[C@@H](CCCNC(=N)N)NC(=O)[C@@H](CCCNC(=N)N)NC(=O)[C@@H](CCCNC(=N)N)NC(=O)[C@@H](CCCNC(=N)N)NC(=O)[C@@H](CCCNC(=N)N)NC(=O)[C@@H](CCCNC(=N)N)NC(=O)[C@H](N)CCCNC(=N)N)C(=O)N1CCC[C@H]1C(=O)N[C@@H](CCC(=O)O)C(=O)N[C@@H](CCC(N)=O)C(=O)N[C@@H](CCC(=O)O)C(=O)N[C@@H](Cc1ccc(O)cc1)C(=O)O [R9-caPep] (H-[dR][dR][dR][dR][dR][dR][dR][dR][dR]CCLGIPEQEY-OH; N-terminus and C-terminus assumed)
intracellular LIGI or FEN1 level [1]: didn't affect intracellular LIGI or FEN1 level
percentage of BrdU-positive cells [2]: significant reduction in the percentage of BrdU-positive cells
SV40 T-antigen-dependent DNA replication [3]: inhibited SV40 T-antigen-dependent DNA replication in vitro
